Results reported in patent US20220281848A1, “PYRAZOLE-SUBSTITUTED PYRROLIDINONES AS HERBICIDES” (FMC Corporation, priority 2019, published 2022).

What was measured:
[1] = tested on: wheat; test: Test D post-emergence, wheat seed treated with a herbicide safener; type: in vivo; conditions: "Cereals" Postemergent
Method: (§1) A formulation containing 50 g/L of the test chemical was prepared by dissolving the active ingredient in a mixture of organic solvents and emulsifier, details of which are provided in the table. This formulation was then mixed with a small, variable amount of acetone to aid dissolution, before addition of a 0.2% v/v aqueous solution of an adjuvant, as the aqueous diluent, to form an aqueous spray solution which contains a predetermined concentration of the active ingredient.
(§2) This aqueous spray solution was then sprayed onto plants including maize and wheat that had been seed treated with a herbicide safener, after one day's cultivation (for pre-emergence) or after about 12 days' cultivation (for post-emergence). The plants were grown from seeds sown in standard soil, placed in a glasshouse under controlled conditions (at 24/18° C. or 20/16° C., day/night; 16 h light; 65% humidity). After spray application the plants were then grown in a glasshouse under the same conditions and watered twice daily. After 15 d for post-emergence and 20 DAA for pre-emergence the test was evaluated (100=total damage to plant; 0=no damage to plant).

[2] = tested on: plants; test: Test D post-emergence, other plants of Tables D2 and D4; type: in vivo; conditions: for damage to plant (100=total damage to plant; 0=no damage to plant), ABUTH / damage to plant (100=total damage to plant; 0=no damage to plant), AMARE / damage to plant (100=total damage to plant; 0=no damage to plant), BIDPI / damage to plant (100=total damage to plant; 0=no damage to plant), BRAPL / damage to plant (100=total damage to plant; 0=no damage to plant), CYPES / damage to plant (100=total damage to plant; 0=no damage to plant), DIGSA / damage to plant (100=total damage to plant; 0=no damage to plant), ECHCG / damage to plant (100=total damage to plant; 0=no damage to plant), ELEIN / damage to plant (100=total damage to plant; 0=no damage to plant), EPHHL / damage to plant (100=total damage to plant; 0=no damage to plant), GLXMA / damage to plant (100=total damage to plant; 0=no damage to plant), IPOHE / damage to plant (100=total damage to plant; 0=no damage to plant), ORYSA / damage to plant (100=total damage to plant; 0=no damage to plant), PANMI / damage to plant (100=total damage to plant; 0=no damage to plant), SETFA / damage to plant (100=total damage to plant; 0=no damage to plant), SORVU: post-emergence
Method: as §1, §2

[3] = "Cereals" Postemergent, Rates 130, evaluated after 15 d
[4] = "Cereals" Postemergent, Rates 250, evaluated after 15 d
[5] = "Cereals" Postemergent, Rates 500, evaluated after 15 d

CN1CC(c2cc(C(F)(F)F)n(C)n2)C(C(=O)Nc2ccc(F)cc2F)C1=O (racemic) [Compound 6]
0: TRZAW damage rating (100=total damage to plant; 0=no damage to plant) ([1]; Rates 130, evaluated after 15 d) | ALOMY damage rating (100=total damage to plant; 0=no damage to plant) [2, 3] | ALOMY damage rating (100=total damage to plant; 0=no damage to plant) [2, 4] | ALOMY damage rating (100=total damage to plant; 0=no damage to plant) [2, 5] | AVEFA damage rating (100=total damage to plant; 0=no damage to plant) [2, 3] | AVEFA damage rating (100=total damage to plant; 0=no damage to plant) [2, 4] | BEAVA damage rating (100=total damage to plant; 0=no damage to plant) [2, 3] | BEAVA damage rating (100=total damage to plant; 0=no damage to plant) [2, 4] | BEAVA damage rating (100=total damage to plant; 0=no damage to plant) [2, 5] | BROTE damage rating (100=total damage to plant; 0=no damage to plant) [2, 3] | BROTE damage rating (100=total damage to plant; 0=no damage to plant) [2, 4] | BRSNN damage rating (100=total damage to plant; 0=no damage to plant) [2, 3] | BRSNN damage rating (100=total damage to plant; 0=no damage to plant) [2, 4] | CHEAL damage rating (100=total damage to plant; 0=no damage to plant) [2, 3] | CHEAL damage rating (100=total damage to plant; 0=no damage to plant) [2, 4] | CHEAL damage rating (100=total damage to plant; 0=no damage to plant) [2, 5] | GALAP damage rating (100=total damage to plant; 0=no damage to plant) [2, 3] | HORVW damage rating (100=total damage to plant; 0=no damage to plant) [2, 3] | KCHSC damage rating (100=total damage to plant; 0=no damage to plant) [2, 3] | KCHSC damage rating (100=total damage to plant; 0=no damage to plant) [2, 4] | LOLPE damage rating (100=total damage to plant; 0=no damage to plant) [2, 3] | LOLPE damage rating (100=total damage to plant; 0=no damage to plant) [2, 4] | LOLPE damage rating (100=total damage to plant; 0=no damage to plant) [2, 5] | POAAN damage rating (100=total damage to plant; 0=no damage to plant) [2, 3] | POAAN damage rating (100=total damage to plant; 0=no damage to plant) [2, 4] | POLCO damage rating (100=total damage to plant; 0=no damage to plant) [2, 3] | POLCO damage rating (100=total damage to plant; 0=no damage to plant) [2, 4] | POLCO damage rating (100=total damage to plant; 0=no damage to plant) [2, 5] | STEME damage rating (100=total damage to plant; 0=no damage to plant) [2, 3] | STEME damage rating (100=total damage to plant; 0=no damage to plant) [2, 4] | VERPE damage rating (100=total damage to plant; 0=no damage to plant) [2, 3] | damage to plant (100=total damage to plant; 0=no damage to plant), ABUTH ([2]; rate 130, evaluated after 15 d) | damage to plant (100=total damage to plant; 0=no damage to plant), AMARE ([2]; rate 130, evaluated after 15 d) | damage to plant (100=total damage to plant; 0=no damage to plant), BIDPI ([2]; rate 130, evaluated after 15 d) | damage to plant (100=total damage to plant; 0=no damage to plant), BIDPI ([2]; rate 250, evaluated after 15 d) | damage to plant (100=total damage to plant; 0=no damage to plant), BIDPI ([2]; rate 500, evaluated after 15 d) | damage to plant (100=total damage to plant; 0=no damage to plant), CYPES ([2]; rate 130, evaluated after 15 d) | damage to plant (100=total damage to plant; 0=no damage to plant), CYPES ([2]; rate 250, evaluated after 15 d) | damage to plant (100=total damage to plant; 0=no damage to plant), CYPES ([2]; rate 500, evaluated after 15 d) | damage to plant (100=total damage to plant; 0=no damage to plant), DIGSA ([2]; rate 130, evaluated after 15 d) | damage to plant (100=total damage to plant; 0=no damage to plant), ECHCG ([2]; rate 130, evaluated after 15 d) | damage to plant (100=total damage to plant; 0=no damage to plant), ELEIN ([2]; rate 130, evaluated after 15 d) | damage to plant (100=total damage to plant; 0=no damage to plant), ELEIN ([2]; rate 250, evaluated after 15 d) | damage to plant (100=total damage to plant; 0=no damage to plant), ELEIN ([2]; rate 500, evaluated after 15 d) | damage to plant (100=total damage to plant; 0=no damage to plant), GLXMA ([2]; rate 130, evaluated after 15 d) | damage to plant (100=total damage to plant; 0=no damage to plant), GLXMA ([2]; rate 250, evaluated after 15 d) | damage to plant (100=total damage to plant; 0=no damage to plant), GLXMA ([2]; rate 500, evaluated after 15 d) | damage to plant (100=total damage to plant; 0=no damage to plant), IPOHE ([2]; rate 130, evaluated after 15 d) | damage to plant (100=total damage to plant; 0=no damage to plant), ORYSA ([2]; rate 130, evaluated after 15 d) | damage to plant (100=total damage to plant; 0=no damage to plant), ORYSA ([2]; rate 250, evaluated after 15 d) | damage to plant (100=total damage to plant; 0=no damage to plant), ORYSA ([2]; rate 500, evaluated after 15 d) | damage to plant (100=total damage to plant; 0=no damage to plant), PANMI ([2]; rate 130, evaluated after 15 d) | damage to plant (100=total damage to plant; 0=no damage to plant), PANMI ([2]; rate 250, evaluated after 15 d) | damage to plant (100=total damage to plant; 0=no damage to plant), PANMI ([2]; rate 500, evaluated after 15 d) | damage to plant (100=total damage to plant; 0=no damage to plant), SETFA ([2]; rate 130, evaluated after 15 d) | damage to plant (100=total damage to plant; 0=no damage to plant), SORVU ([2]; rate 130, evaluated after 15 d) | damage to plant (100=total damage to plant; 0=no damage to plant), SORVU ([2]; rate 250, evaluated after 15 d) | damage to plant (100=total damage to plant; 0=no damage to plant), SORVU ([2]; rate 500, evaluated after 15 d)
10: TRZAW damage rating (100=total damage to plant; 0=no damage to plant) ([1]; Rates 250, evaluated after 15 d) | AVEFA damage rating (100=total damage to plant; 0=no damage to plant) [2, 5] | BROTE damage rating (100=total damage to plant; 0=no damage to plant) [2, 5] | BRSNN damage rating (100=total damage to plant; 0=no damage to plant) [2, 5] | GALAP damage rating (100=total damage to plant; 0=no damage to plant) [2, 4] | HORVW damage rating (100=total damage to plant; 0=no damage to plant) [2, 4] | KCHSC damage rating (100=total damage to plant; 0=no damage to plant) [2, 5] | POAAN damage rating (100=total damage to plant; 0=no damage to plant) [2, 5] | STEME damage rating (100=total damage to plant; 0=no damage to plant) [2, 5] | VERPE damage rating (100=total damage to plant; 0=no damage to plant) [2, 4] | damage to plant (100=total damage to plant; 0=no damage to plant), ABUTH ([2]; rate 250, evaluated after 15 d) | damage to plant (100=total damage to plant; 0=no damage to plant), EPHHL ([2]; rate 130, evaluated after 15 d) | damage to plant (100=total damage to plant; 0=no damage to plant), IPOHE ([2]; rate 250, evaluated after 15 d)
50: damage to plant (100=total damage to plant; 0=no damage to plant), BRAPL ([2]; rate 130, evaluated after 15 d) | damage to plant (100=total damage to plant; 0=no damage to plant), ECHCG ([2]; rate 250, evaluated after 15 d)
20: TRZAW damage rating (100=total damage to plant; 0=no damage to plant) ([1]; Rates 500, evaluated after 15 d) | GALAP damage rating (100=total damage to plant; 0=no damage to plant) [2, 5] | VERPE damage rating (100=total damage to plant; 0=no damage to plant) [2, 5] | damage to plant (100=total damage to plant; 0=no damage to plant), ABUTH ([2]; rate 500, evaluated after 15 d) | damage to plant (100=total damage to plant; 0=no damage to plant), AMARE ([2]; rate 500, evaluated after 15 d) | damage to plant (100=total damage to plant; 0=no damage to plant), EPHHL ([2]; rate 250, evaluated after 15 d) | damage to plant (100=total damage to plant; 0=no damage to plant), IPOHE ([2]; rate 500, evaluated after 15 d) | damage to plant (100=total damage to plant; 0=no damage to plant), SETFA ([2]; rate 250, evaluated after 15 d)
70: damage to plant (100=total damage to plant; 0=no damage to plant), BRAPL ([2]; rate 500, evaluated after 15 d) | damage to plant (100=total damage to plant; 0=no damage to plant), DIGSA ([2]; rate 500, evaluated after 15 d) | damage to plant (100=total damage to plant; 0=no damage to plant), ECHCG ([2]; rate 500, evaluated after 15 d) | damage to plant (100=total damage to plant; 0=no damage to plant), SETFA ([2]; rate 500, evaluated after 15 d)
40: SINAR damage rating (100=total damage to plant; 0=no damage to plant) ([2]; SINAR, "Cereals" Postemergent, Rates 500, evaluated after 15 d)
30: HORVW damage rating (100=total damage to plant; 0=no damage to plant) [2, 5] | damage to plant (100=total damage to plant; 0=no damage to plant), EPHHL ([2]; rate 500, evaluated after 15 d)
60: damage to plant (100=total damage to plant; 0=no damage to plant), BRAPL ([2]; rate 250, evaluated after 15 d) | damage to plant (100=total damage to plant; 0=no damage to plant), DIGSA ([2]; rate 250, evaluated after 15 d)
